Source: patent US11192907B2, “Aminopeptidase A inhibitors and pharmaceutical compositions comprising the same” (QUANTUM GENOMICS, priority 2018, dated 2021)

Columns and labels:
brain APA = details: central infusions, cited from earlier work
recombinant mouse APA = biological target: T1, recombinant mouse APA (Mus musculus, UniProt P16406); test: Measurement of APA activity in vitro (GluβNa hydrolysis, microplate); format: biochemical; details: 200 μM Glu-βNa, pH 7.4, 37° C., read-out: In vitro inhibition of aminopeptidase A, IC50 classification
T1 sequence (P16406 1-945): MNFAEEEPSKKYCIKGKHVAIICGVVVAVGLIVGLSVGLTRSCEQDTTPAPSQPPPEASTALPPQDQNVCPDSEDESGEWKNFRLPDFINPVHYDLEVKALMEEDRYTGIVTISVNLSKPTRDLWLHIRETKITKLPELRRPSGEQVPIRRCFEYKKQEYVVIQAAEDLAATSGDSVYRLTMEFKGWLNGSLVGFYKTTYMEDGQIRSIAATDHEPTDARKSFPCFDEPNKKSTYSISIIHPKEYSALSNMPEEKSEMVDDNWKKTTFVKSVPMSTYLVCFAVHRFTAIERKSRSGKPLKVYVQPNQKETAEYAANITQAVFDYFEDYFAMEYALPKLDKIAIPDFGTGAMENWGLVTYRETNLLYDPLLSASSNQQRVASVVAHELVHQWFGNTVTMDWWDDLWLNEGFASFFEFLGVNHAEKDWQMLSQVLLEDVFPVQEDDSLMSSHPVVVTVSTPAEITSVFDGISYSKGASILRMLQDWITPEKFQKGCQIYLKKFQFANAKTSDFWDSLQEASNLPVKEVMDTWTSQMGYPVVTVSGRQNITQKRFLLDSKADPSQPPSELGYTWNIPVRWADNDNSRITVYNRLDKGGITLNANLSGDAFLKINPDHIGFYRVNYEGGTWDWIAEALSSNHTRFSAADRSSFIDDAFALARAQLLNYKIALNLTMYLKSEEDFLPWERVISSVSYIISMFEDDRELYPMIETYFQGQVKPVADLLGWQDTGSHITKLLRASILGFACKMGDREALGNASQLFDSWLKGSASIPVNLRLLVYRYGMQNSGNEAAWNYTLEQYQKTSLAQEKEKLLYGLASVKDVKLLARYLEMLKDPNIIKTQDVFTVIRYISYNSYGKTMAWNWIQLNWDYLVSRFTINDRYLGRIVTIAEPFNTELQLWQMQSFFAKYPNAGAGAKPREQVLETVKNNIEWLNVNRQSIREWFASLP
Excerpt: In vitro, in the presence of calcium ions, APA hydrolyses a synthetic substrate α-L-glutamyl-β-naphthylamide (GluβNa) to glutamate and β-naphthylamine (βNa). A diazotation reaction in acidic medium makes it possible to reveal the β-naphthylamine by formation of a violet-coloured complex: spectrophotometric measurement then makes it possible to know the amount of complex formed and, by reference to a standard curve produced with increasing concentrations of β-naphthylamine, to deduce the enzymatic activity of the sample.
The reaction takes place at pH 7.4 in 50 mM tris-HCl buffer, in the presence of calcium (4 mM CaCl2)); recombinant mouse APA is incubated at 37° C. in the presence of the substrate (200 μM Glu-βNa) and in the presence or absence of various concentrations of the inhibitor to be tested, in a final volume of 100 μL. The reaction is stopped by adding 10 μL of 3N HCl. A standard curve of β-naphthylamine was prepared in parallel by diazotizing increasing concentrations (up to 0.2 mM) of 2-naphthylamine in 0.1 N HCl.
The following are added to each well: 25 μL of sodium nitrite (NaNO2) (mix, wait 5 minutes at room temperature), 50 μL of ammonium sulfamate (mix, wait 5 minutes at room temperature), then add 25 μL of N-(1-naphthyl) ethylenediamine dihydrochloride (mix, wait for stabilization of the violet colour for approximately 30 minutes at 37° C.).
The absorbance is then measured at 540 nm.

[1] = acute oral, 15 to 150 mg/kg, conscious hypertensive DOCA-salt rats and SHR rats; cited from earlier work

Row | Structure (SMILES) | effect on BP (brain APA; several experimental models of hypertension) | effect on brain APA activity (brain APA) | IC50 (recombinant mouse APA) [µM] | effect on BP [1]
1 | N[C@H](CS)CCS(=O)(=O)O [EC33, (S)-3 amino-4-mercapto-butylsulfonic acid] | lower BP | inhibit brain APA activity | 0.3 to 10 | –
2 | N[C@@H](CCS(=O)(=O)O)CSSC[C@@H](N)CCS(=O)(=O)O [RB150] | – | – | – | dose-dependent decrease in BP
